Measured values taken from patent publication US11731946B2, “Broad spectrum antivirulence, anti-persistence compounds” (priority 2017, dated 2023).
pIC50: −log10 of the molar value. Read-outs that look alike come from different tables or passages of the source.

Columns and labels:
MvfR regulon [1] = test: Quantification of pyocyanin (OD520nm of chloroform-extracted cultures); format: cell-based, P. aeruginosa; settings: for activity at 50 µM / activity at 1 µM / activity at 10 µM / IC50: Pseudomonas aeruginosa; for activity at 50 µM: read-out: pyocyanin @50 uM (%), compound at 50 uM; for activity at 1 µM: read-out: pyocyanin @1 uM (%), compound at 1 uM; for activity at 10 µM: read-out: pyocyanin @10 uM (%), compound at 10 uM; for pyocyanin @50 uM (%): compound at 50 uM; for IC50: read-out: IC50 pyocyanin (μM)
MvfR regulon [2] = test: pqsA gene expression (pqsA-GFP reporter); format: cell-based, P. aeruginosa; settings: for activity at 50 µM / activity at 10 µM: Pseudomonas aeruginosa; for activity at 50 µM: read-out: pqsA @50 uM (%), compound at 50 uM; for activity at 10 µM: read-out: pqsA @10 uM (%), compound at 10 uM
Method: Experiments were performed to identify compounds that inhibit the MvfR regulon without altering growth, ultimately attenuating P. aeruginosa infection. MvfR is a LysR-type transcriptional regulator that directs HAQs synthesis, including that of its ligands, 4-hydroxy-2-heptylquinoline (HHQ) and 3,4-dihydroxy-2-heptylquinoline (PQS).
MvfR promotes the production of HAQs by binding to and activating the pqs operon, which encodes enzymes for HAQ synthesis. Anthranilic acid (AA), derived from the phnAB, kynABU, and trpEG pathways, is the precursor for HAQs. pqsA encodes an anthranilate-coenzyme A ligase, which activates anthranilic acid and catalyzes the first committed step to HAQ production. The exact roles of PqsB and PqsC are unknown, though both show homology to acyl-carrier-proteins and both are required for HHQ and PQS production. […] The final gene of the operon, pqsE encodes for a putative hydrolase, and while the protein is not required for the synthesis of HAQs, it is necessary for pyocyanin production.
Nanomolar levels of most of these MvfR antagonists impeded the activity of MvfR and in consequence the MvfR virulence regulated ACRP functions, including: (1) the production of the important pro-acute P. aeruginosa virulence factor pyocyanin (see e.g., FIG. 9A) the efficacy of two of these potent inhibitors, D57 and D88, was also confirmed by testing many different MDR P. aeruginosa clinical isolates (see e.g., FIG. 11A-11B), providing further confidence of their inhibitory potency; (2) the expression of the genes that encode the enzymes catalyzing the synthesis of both pro-acute and pro-persistence MvfR-regulated virulence molecules, 4-hydroxyl-2-alkyl-quinolines (HAQs) and 2-aminoacetophenon (2-AA), as assessed by pqsAGFP reporter gene expression (see e.g., FIG. 9B) and HAQ production showing the levels of MvfR inducers/ligands HHQ and PQS as well as of the molecules critical for biofilm and Antibiotic tolerant/persiters cells formation HQNO and 2-AA (see e.g., FIG. 9C); (3) AT/P cell formation (see e.g., FIGS. 11A, 12A); (4) biofilm formation (see e.g., FIG. 12B); and (5) biofilm dispersal of preformed biofilm by potentiating antibiotic action (see e.g., FIG. 11B).

| SMILES | activity at 50 µM (MvfR regulon [1]) [%] | activity at 50 µM (MvfR regulon [2]) [%] | activity at 1 µM (MvfR regulon [1]) [%] | activity at 10 µM (MvfR regulon [1]) [%] | activity at 10 µM (MvfR regulon [2]) [%] | also measured |
| --- | --- | --- | --- | --- | --- | --- |
| N#Cc1ccc(NC(=O)CNc2ccc(F)cc2F)cc1 [Compound 16] | 89.1 | 56.3 | – | – | – | – |
| O=C(Nc1ccc(Oc2ccccc2)cc1)[C@@H](F)C(=O)Nc1ccc(C(F)(F)F)cc1 (racemic) [Compound 115] | 7.08 | 1.75 | 27.1 | 11.4 | 1.05 | – |
| Cc1cc(NC(=O)CNc2ccc(F)cc2C)ccc1Br [Compound 43] | 68.5 | 47 | – | – | – | – |
| CN(C(=O)CC(=O)Nc1ccc(C#N)cc1)c1ccc(C#N)cc1 [Compound 89] | 84.8 | – | 95.7 | 102 | 98.5 | – |
| N#Cc1ccc(NCC(=O)Nc2ccc(F)cc2)cc1 [Compound 36] | 59.1 | 25.5 | – | – | – | – |
| N#Cc1ccc(NC(=O)CC(=O)Nc2ccc(F)cn2)cc1 [Compound 88] | 48.3 | – | 97 | 77.7 | 95.1 | – |
| Cc1ccccc1NCC(=O)Nc1ccccc1 [Compound 38] | 102 | 95.4 | – | – | – | – |
| Cc1ccc(NC(=O)CNc2ccc(F)cc2C)c(C)c1 [Compound 33] | 112 | 87.3 | – | – | – | – |
| Cc1cc(F)ccc1NCC(=O)Nc1ccc(N2CCCC2=O)cc1 [Compound 21] | 107 | 105 | – | – | – | – |
| CC(=O)Nc1cccc(NCC(=O)Nc2ccc(C#N)cc2)c1C [Compound 39] | 93.4 | 99.5 | – | – | – | – |
| N#Cc1ccc(NC(=O)CC(=O)Nc2ccc(C#N)cn2)cc1 [Compound 93] | 14.3 | – | 79.6 | 53.5 | 61.3 | – |
| Cc1cc(F)ccc1NC(C)C(=O)Nc1ccc(C#N)cc1 (stereo not drawn) [Compound 13] | – | – | – | – | – | pyocyanin @50 uM (%) (MvfR regulon [1]; listed as D1): 101.56%; pqsA @50 uM (%) (MvfR regulon [2]; compound at 50 uM, listed as D1): 88.58% |
| N#Cc1ccc(NC(=O)CC(=O)Cc2ccc(F)cc2)cc1 [Compound 99] | 102 | – | 92 | 115 | 96.3 | – |
| N#Cc1ccc(NC(=O)C(N)C(=O)Nc2ccc(C#N)cc2)cc1 [Compound 114] | 2.85 | 1.75 | 94.9 | 66.1 | 58.9 | – |
| Cc1cc(F)ccc1NCC(=O)Nc1cccc(C#N)c1 [Compound 25] | 100 | 90.2 | – | – | – | – |
| N#Cc1ccc(NC(=O)C(F)C(=O)Nc2ccc(C#N)cc2)cc1 [Compound 111] | 34 | 41.8 | 91.7 | 50.8 | 62.8 | – |
| N#Cc1ccc(NC(=O)CC(=O)Nc2ccc(C#N)nc2)cc1 [Compound 92] | 6.8 | – | 64.5 | 13.9 | 25.4 | IC50 (MvfR regulon [1]): 1.61 µM |
| N#Cc1ccc(NC(=O)CC(=O)c2ccc(F)cc2)cc1 [Compound 91] | 77.1 | – | 99.2 | 98.3 | 87.4 | – |
| COc1ccc(NC(=O)CNc2ccc(F)cc2C)cc1 [Compound 27] | 102 | 86.9 | – | – | – | – |
| N#Cc1ccc(NC(=O)CC(=O)Nc2ccc([N+](=O)[O-])cc2)cc1 [Compound 66] | – | – | – | – | 1.51 | pyocyanin @1 uM (%) (MvfR regulon [1]; compound at 1 uM, listed as D51P): 61.28%; pyocyanin @10 uM (%) (MvfR regulon [1]; compound at 10 uM, listed as D51P): 24.86%; pyocyanin @50 uM (%) (MvfR regulon [1]; listed as D51P): 4.00%; pIC50 (MvfR regulon [1]; read-out: IC50 pyocyanin): 6.08 |
| O=C(CC(=O)Nc1ccc(C(F)(F)F)cc1)Nc1ccc(Oc2ccccc2)cc1 [Compound 113] | 42.1 | 28.8 | 68 | 60.9 | 37.2 | – |
| Cc1ccc(NCC(=O)Nc2ccccc2)c(C)c1 [Compound 41] | 94.5 | 92.8 | – | – | – | – |
| N#Cc1ccc(/C=C/C(=O)Nc2ccc(C#N)cc2)cc1 [Compound 98] | 114 | – | 94.5 | 108 | 114 | – |
| N#Cc1ccc(NC(=O)CC(=O)Nc2ccc(C(F)(F)F)cc2)cc1 [Compound 84] | 6.1 | – | 46.8 | 6.98 | 6.98 | IC50 (MvfR regulon [1]): 0.45 µM |
